Entries after “also recorded” stand apart in the source; their conditions may differ.
What was measured:
Assay type in all cases: cell-based
hERG1 = target: T1, hERG1 (Homo sapiens, UniProt Q12809); assay: Whole cell patch-clamp of hERG1 currents in transfected HEK 293 cells; design: Inactivation ΔV0.3: unit not given here; conditions: for Deactivation Δλ/λcon: deactivation time constant relative to baseline; for Activation V1/2 (mV): shift in voltage-dependence of activation; for Inactivation ΔV0.3: shift in voltage-dependence of inactivation; for Amplitude I/Icon: tail current relative to baseline
T1 construct: expressed in transfected cells; host or cells: HEK 293
Experimental: (§1) Transfected HEK cells on glass cover slips were placed in a chamber mounted on a modified stage of an inverted microscope. The chamber was superfused at a rate of 2 mL/min with a normal external solution. The extracellular solution contained (in mM) NaCl 140, KCl 5.4, CaCl2 1, MgCl2 1, HEPES 5, glucose 5.5, pH 7.4, with NaOH. Micropipettes were pulled from borosilicate glass capillary tubes on a programmable horizontal puller (Sutter Instruments, Novato, CA). Standard patch-clamp methods were used to measure the whole cell currents of hERG1 mutants expressed in HEK 293 cells using the AXOPATCH 200B amplifier (Axon Instruments). Unless otherwise indicated, tail currents were recorded when the voltage was returned to −50 mV from +50 mV. Further details on electrophysiological methods are collected in Methods S1.
(§2) Electrophysiology Protocol:
(§3) The pipette solution contained the following (at mM concentration): KCl 10, K-aspartate 110, MgCl2 5, Na2ATP 5, EGTA 10, HEPES 5, and CaCl2 1. The solution was adjusted to pH 7.2 with KOH. The extracellular solution contained the following (at mM concentration): NaCl 140, KCl 5.4, CaCl2 1, MgCl2 1, HEPES 5, and glucose 5.5. The solution was adjusted to pH 7.4 with NaOH. For IKr measurements, the whole cell configuration of the patch clamp method was used. The series resistance was less than 7
(§4) MΩ. The data were sampled at 1 kHz. The holding potential was -80 mV. The activation of hERG tail currents was induced by depolarization to a range of potentials from +50 to -100 mV in 10 mV steps for 1 second. This was followed by repolarization to -100 mV for 1 second to record the tail currents.
(§5) -100 mV, a -120 mV 1 second pre-pulse was applied to completely close the hERG channels before subsequent depolarization. All of the tail currents reported in this manuscript represent dofetilide-sensitive currents. The inactivation of hERG was measured by a previously reported triple-pulse protocol5, 6. The holding potential was -80 mV. The hERG channel was first depolarized to +50 mV for 1 second. Recovery from inactivation was achieved using a short pulse (a 10 ms hyperpolarization) to -120 mV, followed by the application of test pulses from -100 to 0 mV for 1 second in 10 mV steps.
(§6) A voltage of -100 mV was selected because it was on the flat part of the inactivation-voltage relationship. The methods employed are identical to ones previously reported. […]

[1] = system: fetal mouse ventricular myocytes; assay: Action potential recordings in neonatal (day 1) / fetal mouse ventricular myocytes; conditions: listed as MC-II-157c
Experimental: (§7) Action potentials were recorded from neonatal (day 1) mouse ventricular myocytes as previously reported. Although IKr has little physiologic importance to the action potential of the adult rodent heart, we previously reported that IKr is the dominant repolarizing current in day 1 neonatal myocytes, with little or no IKs. Thus, these neonatal cells are well suited to assess the physiologic relevance of blockade of IKr to the action potential characteristics. In contrast, to address the possibility that compounds inadvertently interact with other channels, action potentials were recorded from adult cardiac myocytes. Myocytes on glass coverslips were placed in a chamber mounted on a modified stage of an inverted microscope.

hERG1 E544L = target: T2, hERG1 E544L (Homo sapiens, UniProt Q12809, E544L); assay: Whole cell patch-clamp of hERG1 E544L mutant; conditions: 10 µM
T2 construct: expressed in transfected cells; host or cells: HEK 293
Experimental: as §1, §2, §3, §4, §5, §6

[2] = target: T3, cardiac sodium current (INa) (Mus musculus, UniProt Q9JJV9); assay: Patch clamp of INa in neonatal cardiomyocytes
T3 construct: endogenous in cells; host or cells: neonatal (day 1) mouse ventricular cardiomyocytes
Experimental: as §7
Figure 10 Drug effect on action potential in cardiomyocytes. Panel A. The effect of 20 µM and 3 µM Panel B. MC-II-157c on action potentials neonatal cardiomyocytes. […] In patch clamp studies, the INa was induced by depolarizations to −30 mV from holding potentials of −100 mV. The light traces are baseline and bold traces were recorded with MC-II-157c.

[3] = Conc. 3 µM, listed as MC-II-157c
[4] = Conc. 10 µM, listed as MC-II-157c

T3 sequence (Q9JJV9 whole entry): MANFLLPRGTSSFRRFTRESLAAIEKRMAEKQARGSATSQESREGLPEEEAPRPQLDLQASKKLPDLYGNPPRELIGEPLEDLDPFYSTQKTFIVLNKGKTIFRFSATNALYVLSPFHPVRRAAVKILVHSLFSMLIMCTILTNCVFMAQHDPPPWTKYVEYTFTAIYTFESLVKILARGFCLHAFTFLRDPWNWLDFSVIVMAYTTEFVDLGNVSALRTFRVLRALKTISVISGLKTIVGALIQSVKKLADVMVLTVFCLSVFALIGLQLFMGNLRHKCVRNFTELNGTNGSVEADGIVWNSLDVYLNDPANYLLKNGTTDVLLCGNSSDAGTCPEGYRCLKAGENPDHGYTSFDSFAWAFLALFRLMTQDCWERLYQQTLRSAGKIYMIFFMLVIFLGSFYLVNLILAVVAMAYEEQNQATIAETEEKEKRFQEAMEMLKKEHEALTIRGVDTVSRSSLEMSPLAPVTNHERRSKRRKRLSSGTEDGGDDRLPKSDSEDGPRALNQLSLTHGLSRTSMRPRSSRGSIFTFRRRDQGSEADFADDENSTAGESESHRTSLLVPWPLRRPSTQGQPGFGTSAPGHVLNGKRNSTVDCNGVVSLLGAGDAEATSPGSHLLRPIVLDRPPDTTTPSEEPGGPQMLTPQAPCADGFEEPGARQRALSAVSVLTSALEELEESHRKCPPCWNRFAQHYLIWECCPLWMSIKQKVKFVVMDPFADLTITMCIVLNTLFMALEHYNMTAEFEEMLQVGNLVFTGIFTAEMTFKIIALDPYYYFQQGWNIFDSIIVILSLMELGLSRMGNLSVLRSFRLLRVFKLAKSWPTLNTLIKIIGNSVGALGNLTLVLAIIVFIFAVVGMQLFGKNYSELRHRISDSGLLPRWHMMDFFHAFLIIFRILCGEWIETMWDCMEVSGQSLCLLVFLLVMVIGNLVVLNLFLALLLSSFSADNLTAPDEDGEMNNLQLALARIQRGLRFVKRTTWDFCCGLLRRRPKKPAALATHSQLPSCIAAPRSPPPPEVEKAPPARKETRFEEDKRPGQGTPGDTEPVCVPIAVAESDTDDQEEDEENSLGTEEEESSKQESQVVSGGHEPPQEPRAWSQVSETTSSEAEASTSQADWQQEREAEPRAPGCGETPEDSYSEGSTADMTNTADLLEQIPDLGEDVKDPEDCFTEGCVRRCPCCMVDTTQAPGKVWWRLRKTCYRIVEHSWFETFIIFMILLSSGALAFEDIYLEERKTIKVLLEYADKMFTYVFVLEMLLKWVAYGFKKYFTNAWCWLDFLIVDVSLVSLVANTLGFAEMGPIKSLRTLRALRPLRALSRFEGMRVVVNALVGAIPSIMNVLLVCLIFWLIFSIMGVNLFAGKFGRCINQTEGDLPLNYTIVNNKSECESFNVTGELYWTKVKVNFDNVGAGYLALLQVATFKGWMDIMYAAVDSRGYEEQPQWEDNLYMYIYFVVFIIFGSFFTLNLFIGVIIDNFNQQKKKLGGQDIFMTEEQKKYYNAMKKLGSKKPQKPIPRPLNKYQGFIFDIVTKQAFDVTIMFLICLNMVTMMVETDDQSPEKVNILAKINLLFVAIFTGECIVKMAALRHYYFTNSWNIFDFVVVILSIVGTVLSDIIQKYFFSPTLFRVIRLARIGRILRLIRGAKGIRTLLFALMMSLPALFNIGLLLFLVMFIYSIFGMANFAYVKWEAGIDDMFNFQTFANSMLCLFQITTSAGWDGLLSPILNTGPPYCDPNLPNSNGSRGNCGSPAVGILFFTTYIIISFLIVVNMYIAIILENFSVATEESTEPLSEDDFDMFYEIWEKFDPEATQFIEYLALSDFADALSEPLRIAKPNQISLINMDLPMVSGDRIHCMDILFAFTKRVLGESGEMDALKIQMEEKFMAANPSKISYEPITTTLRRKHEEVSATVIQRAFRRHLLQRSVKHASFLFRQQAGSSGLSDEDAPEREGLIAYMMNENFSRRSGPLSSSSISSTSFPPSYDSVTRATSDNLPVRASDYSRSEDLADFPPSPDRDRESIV

For `C[C@H](NCc1ccc(C(F)(F)F)cc1)C(=O)NC(=O)Nc1cc(C(F)(F)F)ccc1O` [Compound 5], the “lower drug concentration at which effects on deactivation were still manifest” value (hERG1) was about 2 µM, the “Deactivation Δλ/λcon” value (hERG1; Conc. 1 µM) was 0.2±0.1 and the “Activation V1/2 (mV)” value (hERG1; Conc. 1 µM) was −2±0.0 mV. For the same compound, the “Inactivation ΔV0.3” value (hERG1; Conc. 1 µM) was 1.3±0.9, the “Amplitude I/Icon” value (hERG1; Conc. 1 µM) was 0.95±0.02 and the “Deactivation Δλ/λcon” value (hERG1; Conc. 3 µM) was 0.8±0.1. For the same compound, the “Deactivation Δλ/λcon” value (hERG1; [3]) was “slows deactivation; also recorded: modest slowing of deactivation”, the “Activation V1/2 (mV)” value (hERG1; Conc. 3 µM) was −6.5±0.5 mV and the “Activation V1/2 (mV)” value (hERG1; [3]) was “does shift voltage dependence of activation; also recorded: shifting V1/2 of activation to hyperpolarized potentials”. The “Inactivation ΔV0.3” value (hERG1; Conc. 3 µM) was 1±1, the “Amplitude I/Icon” value (hERG1; Conc. 3 µM) was 1.1±0.04 and the “Amplitude I/Icon” value (hERG1; [3]) was “significantly increased the tail-current amplitude; also recorded: increases tail current amplitude; also recorded: modest increase in tail current amplitude”. The “Deactivation Δλ/λcon” value (hERG1; Conc. 10 µM) was 3.3±1.3, the “Activation V1/2 (mV)” value (hERG1; Conc. 10 µM) was −14±3.6 mV and the “Inactivation ΔV0.3” value (hERG1; Conc. 10 µM) was 14.0±2.7. The “Inactivation ΔV0.3” value (hERG1; [4]) was “shifts voltage-dependence of inactivation to depolarized potentials”, the “Amplitude I/Icon” value (hERG1; Conc. 10 µM) was 0.88±0.1 and the “Amplitude I/Icon” value (hERG1; [4]) was 0.88. The “Deactivation Δλ/λcon” value (hERG1; Conc. 20 µM) was 3.5±0.2, the “Activation V1/2 (mV)” value (hERG1; Conc. 20 µM) was −15.3±4.1 mV and the “Inactivation ΔV0.3” value (hERG1; Conc. 20 µM) was “+9.3±2.0”. For the same compound, the “Amplitude I/Icon” value (hERG1; Conc. 20 µM) was 0.86±0.1, the “Deactivation Δλ/λcon” value (hERG1; Conc. 50 µM) was 4.5±0.1 and the “Activation V1/2 (mV)” value (hERG1; Conc. 50 µM) was −27.5±3.5 mV. For the same compound, the “Inactivation ΔV0.3” value (hERG1; Conc. 50 µM) was 26±1, the “Amplitude I/Icon” value (hERG1; Conc. 50 µM) was 0.83±0.1 and the “magnitude of the effects on activation and deactivation, greater than previously reported with NS1643” value (hERG1; relative to NS1643) was 6-10 fold. The action potential duration ([1]; 3 µM) was “significantly shortened action potential duration”, the “upstroke of the action potential, overshoot potential and excitability threshold” value ([1]; 20 µM) was “affected the upstroke of the action potential, the overshoot potential and the excitability threshold; also recorded: decreased the upstroke dV/dt of the action potential, the overshoot potential and excitability threshold” and the “response in amplitude of the tail current in E544L versus WT” value (hERG1 E544L) was “markedly diminished”. For the same compound, the “pharmacologic responses (shift in voltage-dependence of activation, slowing of deactivation) in E544L versus WT” value (hERG1 E544L; listed as MC-II-157c) was “significantly and substantially less pharmacologic responses; also recorded: significantly and substantially reduced”, the “concentrations at which INa is blocked” value [2] was over 20 µM and the “blockade of the sodium current (INa)” value ([2]; 20 µM, listed as MC-II-157c) was “blocks a cardiac sodium channel; also recorded: substantially blocks INa”.

— paper PMC4156305, “Structure Driven Design of Novel Human Ether-A-Go-Go-Related-Gene Channel (hERG1) Activators” (PLoS ONE, 2014)
